In patent publication US10954216B2, “BMP-signal-inhibiting compound” (RIKEN, priority 2016, dated 2021):

What was measured:
human ALK3 = human ALK3 (Homo sapiens (Human), UniProt P36894); assay: ALK3 enzyme inhibitory effect (33P-ATP kinase assay, Reaction Biology); assay type: biochemical; details: for inhibition at 0.3 µM: ALK3, test compound 300 nM, read-out: Inhibition rate at 300 nM
From the text: (§1) ALK Enzyme Inhibitory Effect
(§2) Evaluation conditions were described in the following web pages. http://www.reactionbiology.corrilwebapps/site/Kinase_Assay_Protocol.aspx http://www.reactionbiology.corrilwebapps/site/KinaseDetail.aspx?page=Kinases&id=1

human ALK2 = human ALK2 (Homo sapiens (Human), UniProt Q04771); assay: ALK2 enzyme inhibitory effect (33P-ATP kinase assay, Reaction Biology); assay type: biochemical; details: ALK2, 10 μM ATP, 20 μM casein
Chain of human ALK2 (Q04771 21-509): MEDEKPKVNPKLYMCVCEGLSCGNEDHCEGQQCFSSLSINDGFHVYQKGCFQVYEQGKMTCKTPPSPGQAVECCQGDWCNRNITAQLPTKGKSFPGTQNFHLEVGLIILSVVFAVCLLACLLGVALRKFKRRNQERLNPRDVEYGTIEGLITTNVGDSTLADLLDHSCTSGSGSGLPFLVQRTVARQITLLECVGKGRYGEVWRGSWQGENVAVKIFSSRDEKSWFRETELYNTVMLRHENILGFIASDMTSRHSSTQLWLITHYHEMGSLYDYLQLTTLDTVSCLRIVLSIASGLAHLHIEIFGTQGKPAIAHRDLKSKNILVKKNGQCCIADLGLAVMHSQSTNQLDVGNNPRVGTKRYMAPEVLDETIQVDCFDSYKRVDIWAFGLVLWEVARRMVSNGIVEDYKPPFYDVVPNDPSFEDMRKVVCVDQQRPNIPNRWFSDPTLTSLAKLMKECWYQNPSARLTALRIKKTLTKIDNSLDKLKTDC
From the text: as §1, §2

[1] = test system: BMP signal in MDA-231-D-BREFluc/Rluc cells; assay: BMP signal inhibitory effect (AlphaScreen SureFire SMAD1 p-Ser463/465, BMP-6 stimulation); assay type: cell-based; details: BMP-6 stimulated MDA-231-D-BREFluc/Rluc cells, phospho-SMAD1 AlphaScreen; read-out: IC50
Summary of the method: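 MDA-231-D-BREFluc/Rluc cells were pretreated with compound for 2 h at 37° C, then stimulated with BMP-6 for 30 min. SMAD1 p-Ser463/465 in lysates was measured by AlphaScreen SureFire.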

human ALK6 = human ALK6 (Homo sapiens (Human), UniProt O00238); assay: ALK6 enzyme inhibitory effect (33P-ATP kinase assay, Reaction Biology); assay type: biochemical; details: for inhibition at 0.3 µM: ALK6, test compound 300 nM, read-out: Inhibition rate at 300 nM
Chain of human ALK6 (O00238 14-502): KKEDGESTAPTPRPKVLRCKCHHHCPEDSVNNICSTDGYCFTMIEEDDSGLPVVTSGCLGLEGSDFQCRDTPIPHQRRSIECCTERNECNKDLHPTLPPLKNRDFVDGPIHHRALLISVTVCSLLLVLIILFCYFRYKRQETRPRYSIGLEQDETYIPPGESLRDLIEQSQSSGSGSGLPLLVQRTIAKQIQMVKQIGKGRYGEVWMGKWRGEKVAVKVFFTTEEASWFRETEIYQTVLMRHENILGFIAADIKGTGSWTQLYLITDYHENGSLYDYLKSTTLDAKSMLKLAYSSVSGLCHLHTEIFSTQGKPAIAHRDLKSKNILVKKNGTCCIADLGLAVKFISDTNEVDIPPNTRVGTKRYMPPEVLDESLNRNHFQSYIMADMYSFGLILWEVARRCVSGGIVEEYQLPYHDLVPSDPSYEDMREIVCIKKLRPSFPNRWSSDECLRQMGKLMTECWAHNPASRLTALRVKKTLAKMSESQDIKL
From the text: as §1, §2

Chain of human ALK3 (P36894 24-532): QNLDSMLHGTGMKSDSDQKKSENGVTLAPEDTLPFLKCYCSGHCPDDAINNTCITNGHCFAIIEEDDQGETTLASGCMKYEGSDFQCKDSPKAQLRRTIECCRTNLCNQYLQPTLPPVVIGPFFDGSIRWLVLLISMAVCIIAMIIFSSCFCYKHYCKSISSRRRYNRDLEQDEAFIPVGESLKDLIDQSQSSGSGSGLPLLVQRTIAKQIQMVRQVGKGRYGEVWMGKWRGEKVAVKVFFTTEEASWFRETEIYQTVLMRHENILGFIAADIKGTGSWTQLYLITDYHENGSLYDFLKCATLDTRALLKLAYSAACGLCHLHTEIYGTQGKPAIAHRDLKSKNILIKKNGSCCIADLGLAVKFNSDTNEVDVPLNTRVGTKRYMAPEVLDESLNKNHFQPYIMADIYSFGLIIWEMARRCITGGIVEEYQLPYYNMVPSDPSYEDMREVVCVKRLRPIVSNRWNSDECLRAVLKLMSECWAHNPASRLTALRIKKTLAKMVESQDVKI

| Compound | inhibition at 0.3 µM (human ALK3) [%] | IC50 (human ALK2) [µM] | IC50 [1] [µM] | inhibition at 0.3 µM (human ALK6) [%] | inhibition at 0.37 µM (human ALK3; ALK3, test compound 370 nM (asterisk footnote), read-out: inhibition rate at 370 nM) [%] | inhibition at 0.37 µM (human ALK6; ALK6, test compound 370 nM (asterisk footnote), read-out: inhibition rate at 370 nM) [%] |
| --- | --- | --- | --- | --- | --- | --- |
| FC(F)Cn1cc(-c2ccnc(Nc3ccc(N4CCNCC4)cc3)n2)c(-c2cccnc2)n1 [Example 149, 4-(1-(2,2-Difluoroethyl)-3-(pyridin-3-yl)-1H-pyrazol-4-yl)-N-(4-(piperazin-1-yl)phenyl)pyrimidin-2-amine] | 63.5 | 0.0625 | 0.0091 | 86.5 | – | – |
| CCn1cc(-c2ccnc(Nc3ccc(N4CCNCC4)c(F)c3)n2)c(-c2cccnc2)n1 [Example 152, 4-(1-Ethyl-3-(pyridin-3-yl)-1H-pyrazol-4-yl)-N-(3-fluoro-4-(piperazin-1-yl)phenyl)pyrimidin-2-amine] | 53 | 0.015 | 0.0072 | 82 | – | – |
| CCn1cc(-c2ccnc(Nc3ccc(N4CCNCC4)nc3)n2)c(-c2cccnc2)n1 [Example 155, 4-(1-Ethyl-3-(pyridin-3-yl)-1H-pyrazol-4-yl)-N-(6-(piperazin-1-yl)pyridin-3-yl)pyrimidin-2-amine] | – | 0.057 | 0.0085 | – | 48.8 | 86.5 |
| CCn1cc(-c2ccnc(Nc3ccc(C4CCNCC4)cc3)n2)c(-c2cccnc2)n1 [Example 162, 4-(1-Ethyl-3-(pyridin-3-yl)-1H-pyrazol-4-yl)-N-(4-(piperidin-4-yl)phenyl)pyrimidin-2-amine] | 49.5 | 0.025 | 0.0045 | 94.2 | – | – |
| CCn1cc(-c2ccnc(Nc3ccc(-c4cnn(C5CCNCC5)c4)cc3)n2)c(-c2cccnc2)n1 [Example 167, 4-(1-Ethyl-3-(pyridin-3-yl)-1H-pyrazol-4-yl)-N-(4-(1-(piperidin-4-yl)-1H-pyrazol-4-yl)phenyl)pyrimidin-2-amine] | 67.5 | 0.0361 | 0.0124 | 92.2 | – | – |
| CCn1cc(-c2ccnc(Nc3ccc4c(c3)CCNC4)n2)c(-c2cccnc2)n1 [Example 168, N-(4-(1-ethyl-3-(pyridin-3-yl)-1H-pyrazol-4-yl)pyrimidin-2-yl)-1,2,3,4-tetrahydroisoquinolin-6-amine] | 67.3 | 0.043 | 0.0015 | 93.9 | – | – |
| CCn1cc(-c2ccnc(Nc3ccc4c(c3)CNCC4)n2)c(-c2cccnc2)n1 [Example 169, N-(4-(1-ethyl-3-(pyridin-3-yl)-1H-pyrazol-4-yl)pyrimidin-2-yl)-1,2,3,4-tetrahydroisoquinolin-7-amine] | 66.6 | 0.018 | 0.0016 | 96.5 | – | – |
| CCn1cc(-c2ccnc(Nc3ccc4c(c3)CCNCC4)n2)c(-c2cccnc2)n1 [Example 171, N-(4-(1-Ethyl-3-(pyridin-3-yl)-1H-pyrazol-4-yl)pyrimidin-2-yl)-2,3,4,5-tetrahydro-1H-benzo [d] azepin-7-amine] | 67.1 | 0.017 | 0.0013 | 98.3 | – | – |
| CCn1cc(-c2ccnc(Nc3ccc4c(c3)CCN(C(=O)CO)C4)n2)c(-c2cccnc2)n1 [Example 175, 1-(6-((4-(1-Ethyl-3-(pyridin-3-yl)-1H-pyrazol-4-yl)pyrimidin-2-yl)amino)-3,4-dihydroisoquinolin-2(1H)-yl)-2-hydroxyethan-1-one] | 74.6 | 0.0468 | 0.0108 | 93.6 | – | – |
| CCn1cc(-c2ccnc(Nc3ccc(N4CCC(C)(N)CC4)cc3)n2)c(-c2cccnc2)n1 [Example 176, N-(4-(4-amino-4-methylpiperidin-1-yl)phenyl)-4-(1-ethyl-3-(pyridin-3-yl)-1H-pyrazol-4-yl)pyrimidin-2-amine] | 62.4 | 0.066 | 0.0073 | 88.5 | – | – |
| CCn1cc(-c2ccnc(Nc3ccc4c(c3)CN(CCO)CC4)n2)c(-c2cccnc2)n1 [Example 179, 2-(7-((4-(1-ethyl-3-(pyridin-3-yl)-1H-pyrazol-4-yl)pyrimidin-2-yl)amino)-3,4-dihydroisoquinolin-2(1H)-yl)ethan-1-ol] | 62.4 | 0.031 | 0.0057 | 94.3 | – | – |
